Data published in patent US10383837B2, “Compositions and methods for modulating metabolic pathways” (NuSirt Sciences, Inc., priority 2011, dated 2019).
Marks after values point to notes of the source that are not given here. One block for each compound: values may come before it.

Key:
[1] = system: adipocytes (3T3-L1) and myotubes (C2C12); test: Fatty acid oxidation screening: dose-response curves and synergy, cell type not separately stated; assay type: cell-based; settings: for concentration that exerts no effect in dose-response curves (sub-therapeutic dose used in synergy experiments): fatty acid oxidation dose-response
myotubes (C2C12) = test: Fatty acid oxidation, palmitate-induced O2 consumption (Seahorse XF24), myotubes; assay type: cell-based; settings: 24 hours treatment, leucine 0.5 mM, HMB 5 μM, resveratrol 200 nM, partner at its no-effect concentration, % change from control
c2c12 myotubes [2] = test: Glucose utilization, extracellular acidification response to glucose, myotubes; assay type: cell-based; settings: leucine 0.5 mM, HMB 5 μM, resveratrol 200 nM, partner at its no-effect concentration
Experimental: All compounds were tested for potential to independently or synergistically modulate sirtuin signaling either by direct stimulation or indirect via upstream signaling via AMPK. A key outcome of Sirt1 signaling is stimulation of PGC1-α and subsequent stimulation of mitochondrial biogenesis and fatty acid oxidation. Accordingly, fatty acid oxidation, measured as palmitate-induced oxygen consumption as described below, was utilized as a sensitive first level of screening for aerobic mitochondrial metabolism. A dose-response curve for fatty acid oxidation was established for each compound studied, and a “sub-therapeutic dose” was defined as the highest dose that exerted no effect in this system. […] Following assessment of fatty acid oxidation, Sirt1 activity, AMPK activity, mitochondrial biogenesis and glucose utilization (measured as glucose-induced extracellular acidification in the absence of fatty acids in the media) were assessed for lead combinations and appropriate controls. In the absence of a fatty acid source and oxidative metabolism, glycolysis and subsequent lactate production results in extracellular acidification, which was also measured using a Seahorse Bioscience XF24 analyzer. […] Data for each sample were normalized to the pre-glucose injection baseline for that sample and expressed as % change from that baseline. […]

SIRT1 = molecular target: T1, SIRT1 (Mus musculus, UniProt Q923E4); test: Adipose tissue Sirt1 activity in diet-induced obese mice; assay type: in vivo, c57/BL6 mice; design: from tissue; host or cells: adipose tissue of diet-induced obese c57/BL6 mice; settings: 6 weeks, low dose of resveratrol, HMB, leucine diets
T1 sequence (Q923E4 1-737): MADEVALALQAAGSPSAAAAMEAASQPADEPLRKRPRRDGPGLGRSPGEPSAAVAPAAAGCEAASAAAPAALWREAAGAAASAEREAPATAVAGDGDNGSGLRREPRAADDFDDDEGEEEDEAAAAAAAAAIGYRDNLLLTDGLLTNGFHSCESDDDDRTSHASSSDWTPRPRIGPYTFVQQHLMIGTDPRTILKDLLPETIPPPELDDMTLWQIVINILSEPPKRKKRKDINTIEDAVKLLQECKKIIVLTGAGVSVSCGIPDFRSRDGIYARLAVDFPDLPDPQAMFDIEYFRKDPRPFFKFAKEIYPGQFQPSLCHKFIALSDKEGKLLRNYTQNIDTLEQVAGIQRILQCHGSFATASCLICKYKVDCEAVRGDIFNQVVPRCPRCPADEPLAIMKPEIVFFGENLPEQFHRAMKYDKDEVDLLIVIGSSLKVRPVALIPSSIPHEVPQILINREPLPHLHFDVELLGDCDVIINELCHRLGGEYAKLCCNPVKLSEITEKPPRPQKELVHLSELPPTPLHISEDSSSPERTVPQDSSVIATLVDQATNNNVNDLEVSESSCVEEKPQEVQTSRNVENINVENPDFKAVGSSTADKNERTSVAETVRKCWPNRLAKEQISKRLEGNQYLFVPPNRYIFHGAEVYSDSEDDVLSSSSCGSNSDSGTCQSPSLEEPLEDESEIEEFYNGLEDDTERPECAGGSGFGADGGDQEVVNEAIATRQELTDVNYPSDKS

[3] = Body weight, weight gain and visceral adipose volume in diet-induced obese mice; assay type: in vivo, c57/BL6 mice; settings: 6 weeks on diet, low resveratrol 12.5 mg/kg diet, low HMB 2 g CaHMB/kg diet, high HMB 10 g CaHMB/kg diet, leucine 2.42% of diet
From the text: (§1) Six week old male c57/BL6 mice were fed a high-fat diet with fat increased to 45% of energy (Research Diets D12451) for 6 weeks to induce obesity.
At the of the treatment period (6 weeks) all animals were humanely euthanized, and blood and tissues collected for further experiments.

[4] = system: PGC-1α, NRF-1, UCP3 genes; test: Expression of mitochondrial regulatory and component genes; assay type: cell-based
Sirt3 = molecular target: T2, Sirt3 (Mus musculus, UniProt Q8R104); test: Sirt3 activity in mitochondrial protein of treated 3T3-L1 adipocytes; assay type: cell-based; settings: leucine 0.5 mM, HMB 5 μM, resveratrol 200 nM; summary in Example 5
T2 construct: endogenous in cells; host or cells: 3T3-L1 adipocytes (mitochondrial protein)
T2 sequence (Q8R104 1-334): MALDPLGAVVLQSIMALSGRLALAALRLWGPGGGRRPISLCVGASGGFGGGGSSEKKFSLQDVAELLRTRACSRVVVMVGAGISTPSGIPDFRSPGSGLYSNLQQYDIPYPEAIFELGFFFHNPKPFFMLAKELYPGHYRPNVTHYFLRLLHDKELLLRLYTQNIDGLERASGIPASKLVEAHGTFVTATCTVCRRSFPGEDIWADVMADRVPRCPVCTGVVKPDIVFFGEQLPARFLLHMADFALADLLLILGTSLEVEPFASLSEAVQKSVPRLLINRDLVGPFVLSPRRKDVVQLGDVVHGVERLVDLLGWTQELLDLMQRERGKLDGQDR

Adipocytes (3T3-L1) = test: Fatty acid oxidation by 3H-palmitate in 3T3-L1 adipocytes; assay type: cell-based; settings: 4 hours, resveratrol 200 nM, HMB 5 uM, leucine 0.5 mM; for increase in fatty acid oxidation, low glucose: low (5 mM) glucose
Experimental: High glucose medium reduced fatty acid oxidation by 46% (p<0.05).
Fatty acid oxidation was measured using ^3H-labeled palmitate oxidation, with the ^3H label trapped as water as a result of the fat oxidation. The ^3H was then measured via scintillation counter.

myotube = test: Myotube mitochondrial biogenesis, fluorometric NAO binding, Example 1; assay type: cell-based; settings: myotubes
Experimental: (§2) We next investigated the role of intact leucine (0-0.5 mM) vs. its metabolites, α-ketoisocaproic acid (KIC) (0-0.5 mM) and HMB (0-50 μM). […] Both leucine and HMB increased myotube mitochondrial biogenesis (assessed fluorometrically via NAO binding) by ˜50%, (p<0.005, FIG. 3).

[5] = Indices of insulin sensitivity (plasma glucose, insulin, HOMAIR) in diet-induced obese mice; assay type: in vivo, c57/BL6 mice; settings: 6 weeks on diet, low resveratrol 12.5 mg/kg diet, low HMB 2 g CaHMB/kg diet, high HMB 10 g CaHMB/kg diet, leucine 2.42% of diet
From the text: Insulin sensitivity can be measured using a variety of techniques, including HOMAIR. HOMAIR, which is the homeostasis model assessment of insulin resistance can be used as a screening index of changes in insulin sensitivity. HOMAIR can be calculated via standard formula from fasting plasma insulin and glucose as follows: HOMAIR=[Insulin (uU/mL)×glucose (mM)]/22.5.
as §1

[6] = system: C-reactive protein, IL-6, MCP-1, adiponectin; test: Circulating inflammatory biomarkers in diet-induced obese mice; assay type: in vivo, c57/BL6 mice; settings: 6 weeks on diet, low resveratrol 12.5 mg/kg diet, low HMB 2 g CaHMB/kg diet, high HMB 10 g CaHMB/kg diet, leucine 2.42% of diet
c2c12 myotubes [7] = test: Fatty acid oxidation (FAO) in c2c12 myotubes, Example 1; assay type: cell-based; settings: in the presence and absence of 20 nM rapamycin
Experimental: We have shown that catabolic systems are also stimulated to fuel this process, resulting in increased mitochondrial biogenesis and fatty acid oxidation (FAO). To address the mechanism of this effect, we first determined its mTOR-dependence by assessing leucine stimulation of FAO in the presence and absence of 20 nM rapamycin; although rapamycin inhibited FAO in c2c12 myotubes, the degree of leucine stimulation was preserved (˜50%, p<0.03; FIG. 1).
as §2

[8] = db/db mice, 2 weeks
[9] = Plasma insulin, glucose and HOMAIR in diabetic db/db mice; assay type: in vivo; settings: 2 weeks, low dose (150 mg/kg) and very low dose (50 mg/kg) of metformin
[10] = db/db mice, day 7, insulin 0.75 U/kg i.p.; standard metformin dose or blends

Compound: O=C(O)/C=C/c1ccc(O)c(O)c1 [Caffeic acid, caffeic acid]
concentration that exerts no effect in dose-response curves (sub-therapeutic dose used in synergy experiments) [1]: ≤ 1000 nM

Compound: Cn1c(=O)c2c(ncn2C)n(C)c1=O [Caffeine, caffeine, reference compound]
increase in myotube fatty acid oxidation (myotubes (C2C12)): neither component exerted an independent effect

Compound: O=C(O[C@@H]1Cc2c(O)cc(O)cc2O[C@@H]1c1cc(O)c(O)c(O)c1)c1cc(O)c(O)c(O)c1 [EGCG, epigallocatechin gallate]
independent activity in dose-response curves / direct stimulation of fatty acid oxidation [1]: minimally active
increase in glucose utilization, myotubes (c2c12 myotubes [2]): no independent effect

Compound: O=c1oc2c(O)c(O)cc3c(=O)oc4c(O)c(O)cc1c4c23 [Ellagic acid, ellagic acid]
independent activity in dose-response curves / direct stimulation of fatty acid oxidation [1]: little activity, even at high concentrations

Compound: CC(C)(O)CC(=O)O [HMB, beta-hydroxymethylbutyrate]
adipose tissue Sirt1 activity (SIRT1): Neither resveratrol nor HMB exerted significant independent effects
Visceral Adipose Volume [3]: 6184 ± 460^a mm^3
Weight [3]: 40.3 ± 2.1^a g
Weight gain [3]: 22.5 ± 1.2 g
expression of mitochondrial regulatory (PGC-1α and NRF-1) and component (UCP3) genes [4]: stimulated expression
stimulation of Sirt3 (Sirt3): no independent effects
increase in fatty acid oxidation, high glucose (Adipocytes (3T3-L1); high (25 mM) glucose, vs. control): 29%
increase in fatty acid oxidation, low glucose (Adipocytes (3T3-L1)): no independent effect
increase in myotube mitochondrial biogenesis (NAO binding) (myotube): ~50%
Glucose (plasma) [5]: 4.28 ± 0.49^a mM
Insulin (plasma) [5]: 8.3 ± 1.1^a μU/mL
Adiponectin [6]: 11.1 ± 1.6^a ng/mL
C-reactive protein [6]: 98.6 ± 5.1^a ng/mL
IL-6 [6]: 19.9 ± 3.1^a pg/mL
MCP-1 [6]: 116.8 ± 9.3^a pg/mL

Compound: OC[C@@H](O)[C@@H](O[C@H]1O[C@H](CO)[C@@H](O)[C@H](O)[C@H]1O)[C@H](O)[C@@H](O)CO [Maltitol, maltitol]
concentration that exerts no effect in dose-response curves (sub-therapeutic dose used in synergy experiments) [1]: ≤ 100 nM
synergy with HMB or leucine in stimulating fatty acid oxidation ([1]; leucine 0.5 mM, HMB 5 μM): no synergy was noted

Compound: Cn1c(=O)c2[nH]cnc2n(C)c1=O [Theophylline, theophylline, reference compound]
concentration that exerts no effect in dose-response curves (sub-therapeutic dose used in synergy experiments) [1]: below 1 μM

stimulation of Sirt3 (Sirt3): no independent effects
Compound: CC(C)C[C@H](N)C(=O)O [leucine]
expression of mitochondrial regulatory (PGC-1α and NRF-1) and component (UCP3) genes [4]: stimulated expression
increase in fatty acid oxidation, low glucose (Adipocytes (3T3-L1)): no independent effect
increase in myotube mitochondrial biogenesis (NAO binding) (myotube): ~50%
degree of leucine stimulation of FAO (c2c12 myotubes [7]): ~50%

Compound: CN(C)C(=N)N=C(N)N [metformin]
visceral fat mass ([8]; control 4.5 g): not affected
effect on body composition ([8]; high dose metformin 300 mg/kg bw): no significant effects
independent effects on any variable studied [9]: no significant independent effects
decrease in blood glucose over the 30 minute linear portion of the insulin tolerance test response curve [10]: ~60 mg/dL

Compound: fucoxanthin
concentration that exerts no effect in dose-response curves (sub-therapeutic dose used in synergy experiments) [1]: ≤ 100 nM
